Among the data in ChEMBL document CHEMBL4184109, “Design, synthesis, and structure-activity relationship studies of novel tetrazole antifungal agents with potent activity, broad antifungal spectrum and high selectivity” (Bioorg Med Chem Lett, 2018) are MIC80 values, retold here.

Holding throughout (type): functional
One test concerns Cryptococcus neoformans. Put plainly: Antifungal activity against Cryptococcus neoformans after 72 hrs by serial dilution method.
In the next test the test system is Nakaseomyces glabratus. Put plainly: Antifungal activity against Candida glabrata after 24 hrs by serial dilution method.
A further test concerns Candida parapsilosis. Put plainly: Antifungal activity against Candida parapsilosis ATCC 22019 after 24 hrs by serial dilution method. The settings on record: Lodderomyces parapsilosis, ATCC 22019, 24 h.
The subject of test [1] is Candida albicans. Kind of test: Antifungal activity against Candida albicans SC5314 after 24 hrs by serial dilution method. The settings on record: SC5314, 24 h.
For test [2], the system named is Candida albicans. Kind of test: Antifungal activity against Candida albicans Y0109 after 24 hrs by serial dilution method. The settings on record: Y0109, 24 h.
Another test relates to Aspergillus fumigatus. Kind of test: Antifungal activity against Aspergillus fumigatus after 48 hrs by serial dilution method.
Another test concerns Nannizzia gypsea. Put plainly: Antifungal activity against Microsporum gypseum by serial dilution method.

For orientation: MIC80 means the lowest concentration that inhibits either 80% of growth or 80% of the strains tested, depending on the study.

The structures appear in SMILES notation. Converted amounts (≈) assume the structure as drawn.

With `CS(=O)(=O)c1ccc(Cn2ncn(-c3ccc(C(F)(F)C(O)(Cn4cnnn4)c4ccc(F)cc4F)nc3)c2=O)cc1` (stereo unspecified), the MIC80 against Cryptococcus neoformans, in the test with Nakaseomyces glabratus, in the test on Candida parapsilosis, against Candida albicans [1], with Candida albicans [2] and in the test on Aspergillus fumigatus was above 64 µg/mL in each case.
As for `COc1ccc(Cn2ncn(-c3ccc(C(F)(F)C(O)(Cn4cnnn4)c4ccc(F)cc4F)nc3)c2=O)cc1` (stereo unspecified), the MIC80 against Cryptococcus neoformans was 2 µg/mL (≈ 3.59 µM); with Nakaseomyces glabratus, 2 µg/mL (≈ 3.59 µM); in the test with Candida parapsilosis, 0.25 µg/mL (≈ 0.449 µM); against Candida albicans [1], 0.5 µg/mL (≈ 0.899 µM); against Candida albicans [2], 0.5 µg/mL (≈ 0.899 µM); in the test with Aspergillus fumigatus, above 8 µg/mL.
On to `O=c1n(-c2ccc(C(F)(F)C(O)(Cn3cnnn3)c3ccc(F)cc3F)nc2)cnn1Cc1ccc(C(F)(F)F)cc1` (stereo unspecified), for which the MIC80 in the test with Cryptococcus neoformans is 4 µg/mL (≈ 6.73 µM); in the test with Nakaseomyces glabratus, 4 µg/mL (≈ 6.73 µM); in the test on Candida parapsilosis, 0.5 µg/mL (≈ 0.841 µM); against Candida albicans [1], 2 µg/mL (≈ 3.36 µM); in the test on Candida albicans [2], 1 µg/mL (≈ 1.68 µM); against Aspergillus fumigatus, above 8 µg/mL.
For `CC(C)n1ncn(-c2ccc(C(F)(F)C(O)(Cn3cnnn3)c3ccc(F)cc3F)nc2)c1=O` (stereo unspecified), the MIC80 was 8 µg/mL (≈ 16.7 µM) in the test with Cryptococcus neoformans; 2 µg/mL (≈ 4.18 µM) in the test with Nakaseomyces glabratus; 0.5 µg/mL (≈ 1.05 µM) in the test with Candida parapsilosis; 1 µg/mL (≈ 2.09 µM) with Candida albicans [1]; 1 µg/mL (≈ 2.09 µM) in the test with Candida albicans [2]; above 8 µg/mL in the test with Aspergillus fumigatus.
Consider `N#Cc1ccc(Cn2ncn(-c3ccc(C(F)(F)C(O)(Cn4cnnn4)c4ccc(F)cc4F)nc3)c2=O)cc1` (stereo unspecified), for which the MIC80 is 4 µg/mL (≈ 7.25 µM) in the test with Cryptococcus neoformans; 4 µg/mL (≈ 7.25 µM) against Nakaseomyces glabratus; 0.5 µg/mL (≈ 0.907 µM) against Candida parapsilosis; 2 µg/mL (≈ 3.63 µM) in the test on Candida albicans [1]; 1 µg/mL (≈ 1.81 µM) with Candida albicans [2]; above 8 µg/mL in the test on Aspergillus fumigatus.
With `COCCOc1ccc(Cn2ncn(-c3ccc(C(F)(F)C(O)(Cn4cnnn4)c4ccc(F)cc4F)nc3)c2=O)cc1` (stereo unspecified), the MIC80 against Cryptococcus neoformans was 0.5 µg/mL (≈ 0.833 µM); against Nakaseomyces glabratus, 2 µg/mL (≈ 3.33 µM); against Candida parapsilosis it was 2 µg/mL (≈ 3.33 µM); in the test with Candida albicans [1] it was 1 µg/mL (≈ 1.67 µM); against Candida albicans [2], 1 µg/mL (≈ 1.67 µM); with Aspergillus fumigatus, above 64 µg/mL.
As for `CCn1ncn(-c2ccc(C(F)(F)C(O)(Cn3cnnn3)c3ccc(F)cc3F)nc2)c1=O` (stereo unspecified), the MIC80 was 8 µg/mL (≈ 17.2 µM) with Cryptococcus neoformans; 8 µg/mL (≈ 17.2 µM) in the test on Nakaseomyces glabratus; 2 µg/mL (≈ 4.31 µM) against Candida parapsilosis; 2 µg/mL (≈ 4.31 µM) in the test with Candida albicans [1]; 2 µg/mL (≈ 4.31 µM) against Candida albicans [2]; above 8 µg/mL against Aspergillus fumigatus.
Turning to `CC(O)(CO)Cn1ncn(-c2ccc(C(F)(F)C(O)(Cn3cnnn3)c3ccc(F)cc3F)nc2)c1=O` (stereo unspecified), the MIC80 with Cryptococcus neoformans, against Nakaseomyces glabratus, against Candida parapsilosis, in the test on Candida albicans [1], in the test on Candida albicans [2] and in the test on Aspergillus fumigatus was above 8 µg/mL in each case.
On to `O=C1CCCCC1n1ncn(-c2ccc(C(F)(F)C(O)(Cn3cnnn3)c3ccc(F)cc3F)nc2)c1=O` (stereo unspecified), for which the MIC80 against Cryptococcus neoformans is above 8 µg/mL; against Nakaseomyces glabratus, above 8 µg/mL; against Candida parapsilosis, 2 µg/mL (≈ 3.76 µM); against Candida albicans [1] it was above 8 µg/mL; in the test on Candida albicans [2], 4 µg/mL (≈ 7.51 µM); against Aspergillus fumigatus, above 8 µg/mL.
Take `O=c1n(-c2ccc(C(F)(F)C(O)(Cn3cnnn3)c3ccc(F)cc3F)nc2)cnn1Cc1ccc(F)cc1` (stereo unspecified): the MIC80 is 2 µg/mL (≈ 3.67 µM) in the test with Cryptococcus neoformans; 2 µg/mL (≈ 3.67 µM) against Nakaseomyces glabratus; 0.25 µg/mL (≈ 0.459 µM) with Candida parapsilosis; 0.5 µg/mL (≈ 0.918 µM) with Candida albicans [1]; 1 µg/mL (≈ 1.84 µM) against Candida albicans [2]; above 8 µg/mL in the test on Aspergillus fumigatus.
For the compound `O=c1n(-c2ccc(C(F)(F)C(O)(Cn3cnnn3)c3ccc(F)cc3F)nc2)cnn1CC#CCO` (stereo unspecified), the MIC80 was above 8 µg/mL against Cryptococcus neoformans; above 8 µg/mL with Nakaseomyces glabratus; 4 µg/mL (≈ 7.93 µM) in the test on Candida parapsilosis; above 8 µg/mL in the test on Candida albicans [1]; above 8 µg/mL against Candida albicans [2]; above 8 µg/mL in the test with Aspergillus fumigatus.
Take `O=c1n(-c2ccc(C(F)(F)C(O)(Cn3cnnn3)c3ccc(F)cc3F)nc2)cnn1C1CCCCCC1` (stereo unspecified): the MIC80 with Nannizzia gypsea was above 64 µg/mL; with Cryptococcus neoformans it was 0.5 µg/mL (≈ 0.939 µM); in the test with Nakaseomyces glabratus, 1 µg/mL (≈ 1.88 µM); in the test on Candida parapsilosis, 0.5 µg/mL (≈ 0.939 µM); in the test on Candida albicans [1], 1 µg/mL (≈ 1.88 µM); against Candida albicans [2], 0.5 µg/mL (≈ 0.939 µM). In addition, in the test with Aspergillus fumigatus, the MIC80 was above 64 µg/mL.
With `CC(C)(O)Cn1ncn(-c2ccc(C(F)(F)C(O)(Cn3cnnn3)c3ccc(F)cc3F)nc2)c1=O` (stereo unspecified), the MIC80 against Cryptococcus neoformans is above 8 µg/mL; with Nakaseomyces glabratus, above 8 µg/mL; against Candida parapsilosis, 4 µg/mL (≈ 7.87 µM); with Candida albicans [1], above 8 µg/mL; against Candida albicans [2], above 8 µg/mL; with Aspergillus fumigatus it was above 8 µg/mL.
As to `O=c1n(-c2ccc(C(F)(F)C(O)(Cn3cnnn3)c3ccc(F)cc3F)nc2)cnn1Cc1ccccn1` (stereo unspecified), the MIC80 was 1 µg/mL (≈ 1.9 µM) in the test with Cryptococcus neoformans; 2 µg/mL (≈ 3.79 µM) against Nakaseomyces glabratus; 16 µg/mL (≈ 30.3 µM) in the test with Candida parapsilosis; 2 µg/mL (≈ 3.79 µM) against Candida albicans [1]; 4 µg/mL (≈ 7.58 µM) against Candida albicans [2]; above 64 µg/mL in the test with Aspergillus fumigatus.
In the case of `O=c1n(-c2ccc(C(F)(F)C(O)(Cn3cnnn3)c3ccc(F)cc3F)nc2)cnn1Cc1ccc(OC(F)(F)F)cc1` (stereo unspecified), the MIC80 against Cryptococcus neoformans is 2 µg/mL (≈ 3.28 µM); with Nakaseomyces glabratus, 4 µg/mL (≈ 6.55 µM); against Candida parapsilosis, 0.5 µg/mL (≈ 0.819 µM); against Candida albicans [1], 1 µg/mL (≈ 1.64 µM); in the test with Candida albicans [2], 1 µg/mL (≈ 1.64 µM); in the test with Aspergillus fumigatus it was above 8 µg/mL.
